From patent US20120295923A1, “Aminocyclohexanes and Aminotetrahydropyrans and Related Compounds As Gamma-Secretase Modulators” (PFIZER INC., priority 2010, published 2012)
Structures can show the parent of a compound that is named as a salt. Where two headings read alike, the source gives them in different places.

Tested on: γ-secretase; production of amyloid beta protein Aβ(1-42)
Test: Cell-Based γ-Secretase Assay with ELISA Readout
Conditions: human WT-APP overexpressing CHO cells
Protocol: The ability of compounds to modulate production of amyloid beta protein A6(1-42) was determined using human WT-APP overexpressing CHO cells. Cells were plated at 22,000 cells/100 μL well in 96 well tissue culture treated, clear plates (Falcon) in DMEM/F12 based medium and incubated for 24 hours at 37° C. Compounds for testing were diluted in 100% DMSO to achieve an eleven points, half log, dose response for IC50 determinations. Compounds were added in fresh medium to achieve 1% final DMSO. Appropriate vehicle and inhibitor controls were added to obtain maximum and minimum inhibition values for the assay before the plates were incubated for about 24 hours at 37° C.
Coating of ELISA assay plates was initiated by addition of 50 μL/well of an in-house Aβ(1-42) specific antibody at (4 μg/mL) in 0.1 M NaHCO3 (pH 9.0) into black 384-well Maxisorp® plates (Nunc) and incubated overnight at 4° C. The capture antibody was then aspirated from the ELISA assay plates and 100 μL/well of Blocking Buffer (Dulbecco's PBS, 1.5% BSA (Sigma A7030)) added. Ambient temperature incubation was allowed to proceed for a minimum of two hours before washing 2×100 μL with Wash Buffer (Dulbecco's PBS, 0.05% Tween 20). Assay Buffer (Dulbecco's PBS, 1.0% BSA (Sigma A7030), 0.05% Tween 20) 20 μL/well was then added.
After incubation overnight at 37° C., 5% CO2, 40 μL (in duplicate) of experimental conditioned media were transferred into wells of the blocked ELISA plates containing the capture antibody, followed by overnight incubation at 4° C.
After overnight incubation of the ELISA assay plates at 4° C., unbound Aβ peptides were removed thorough (4×100 μL) washes with Wash Buffer. Europium (Eu) labeled (custom labeled, Perkin Elmer) Aβ(1-16) 6e10 Monoclonal Antibody (Covance #SIG-39320 was added, (50 μL/well Eu-6e10 @ 1:5000, 20 uM EDTA) in Assay Buffer. Incubation at ambient temperature for a minimum of 2 hours was followed by (4×100 μL) washes with Wash Buffer, before 50 μL/well of Delfia Enhancement Solution (PerkinElmer) was added. Following a one hour ambient temperature incubation, the plates were read on an EnVision plate reader (PerkinElmer) using standard DELFIA TRF settings. Data analysis including inhibitory IC50 determination was performed using nonlinear regression fit analysis (in-house software) and the appropriate plate mean values for the maximum and minimum inhibition controls.

[1] = geometric mean of 2-4 determinations unless otherwise indicated (footnote 10: 6-8; footnote 14: single determination), read-out: Aβ 42B IC50
[2] = footnote 8: single determination, read-out: Aβ 42B IC50 (nM) (Geometric Mean of 2-8 Determinations)
[3] = geometric mean of 2 determinations unless otherwise indicated (footnote 2: 6-14 determinations), read-out: Aβ 42B IC50

IC50 [1] [nM] | IC50 [2] [nM] | Compound | further results
1300 | – | O=C(O)C[C@@H]1CC[C@@H](N(CC2CCCCC2)C2CCOCC2)[C@H](c2ccc(C(F)(F)F)cc2)C1 [Example 31, {(1R,3S,4R)-4-[(cyclohexylmethyl)(tetrahydro-2H-pyran-4-yl)amino]-3-[4-(trifluoromethyl)phenyl]cyclohexyl}acetic acid, ammonium salt] | –
– | 9190 | Cc1cc(Cl)ccc1[C@@H]1OC(CC(=O)O)CC[C@H]1N(CC1CCCC1)CC1CCCC1 (stereo in doubt) [Example 24, [(2R,5R,6S)-5-[bis(cyclopentyl-methyl)amino]-6-(4-chloro-2-methylphenyl)tetrahydro-2H-pyran-2-yl]acetic acid] | –
– | 470 | CC(C)CCN(CCC(F)(F)F)[C@@H]1CC[C@@H](CC(=O)O)C[C@H]1c1ccc(C(F)(F)F)cc1 [Example 11, {(1R,3S,4R)-4-[(3-methylbutyl) (3,3,3-trifluoropropyl)amino]-3-[4-(trifluoromethyl)phenyl]cyclohexyl} acetic acid, hydrochloride salt] | –
– | 155 | O=C(O)C[C@@H]1CC[C@@H](N(Cc2ccccc2F)CC2CCCC2)[C@H](c2ccc(C(F)(F)F)cc2)C1 [Example 27, {(1R,3S,4R)-4-[(cyclopentyl-methyl)(2-fluorobenzyl)amino]-3-[4-(trifluoromethyl)phenyl]cyclohexyl} acetic acid] | –
382 | – | CC(CN(CC1CCCC1)[C@@H]1CC[C@@H](CC(=O)O)C[C@H]1c1ccc(Cl)cc1)C(F)(F)F (stereo partly drawn) [Example 51, {(1R,3S,4R)-3-(4-chlorophenyl)-4-[(cyclopentylmethyl)(3,3,3-trifluoro-2-methylpropyl)amino]cyclohexyl}acetic acid, trifluoroacetate salt] | –
162 | – | CCC(CC)CN(CC1CCCC1)[C@@H]1CC[C@@H](CC(=O)O)C[C@H]1c1ccc(C(F)(F)F)cc1 [Example 43, {(1R,3S,4R)-4-[(cyclopentylmethyl)(2-ethylbutyl)amino]-3-[4-(trifluoromethyl)phenyl]cyclohexyl}acetic acid, trifluoroacetate salt] | –
– | 8840 | O=C(O)C[C@@H]1CC[C@@H](N2C[C@@H]3CC[C@@H](C3)C2)[C@H](c2ccc(C(F)(F)F)cc2)C1 [Example 25, {(1R,3S,4R)-4-[(1R,5S)-3-azabicyclo[3.2.1]oct-3-yl]-3-[4-(trifluoromethyl)phenyl]cyclohexyl} acetic acid] | –
– | 496 | CC(C)CCN(C1CCC(F)(F)CC1)[C@@H]1CC[C@@H](CC(=O)O)C[C@H]1c1ccc(C(F)(F)F)cc1 [Example 16, {(1R,3S,4R)-4-[(4,4-difluoro-cyclohexyl)(3-methylbutyl)amino]-3-[4-(trifluoromethyl)phenyl]cyclohexyl} acetic acid] | –
– | 107 | O=C(O)C[C@@H]1CC[C@@H](N(CC2CCCCC2)CC2CCCCC2)[C@H](c2ccc(C(F)(F)F)cc2)C1 [Example 15, {(1R,3S,4R)-4-[bis(cyclohexylmethyl)amino]-3-[4-(trifluoro-methyl)phenyl]cyclohexyl}acetic acid] | –
– | 230 | O=C(O)C[C@@H]1CC[C@@H](N(Cc2cccc(F)c2)CC2CCCC2)[C@H](c2ccc(C(F)(F)F)cc2)C1 [Example 28, {(1R,3S,4R)-4-[(cyclopentyl-methyl)(3-fluorobenzyl)amino]-3-[4-(trifluoromethyl)phenyl]cyclohexyl} acetic acid, hydro-chloride salt] | –
– | – | CC(C)CCN(CCC(C)C)[C@@H]1CC[C@@H]([C@H](C)C(=O)O)C[C@H]1c1ccc(C(F)(F)F)cc1 (single isomer, unassigned) [Example 8] | IC50 [3]: 1580 nM
840 | – | CCc1csc(CN(CC2(F)CCCCC2)[C@@H]2CC[C@@H](CC(=O)O)C[C@H]2c2ccc(C(F)(F)F)cc2)n1 [Example 64, {(1R,3S,4R)-4-{[(4-ethyl-1,3-thiazol-2-yl)methyl][(1-fluorocyclohexyl)methyl]amino}-3-[4-(trifluoromethyl)phenyl]cyclohexyl}acetic acid, trifluoroacetate salt] | –
– | 236 | CC(C)CCN(CC1CCCCC1)[C@@H]1CC[C@@H](CC(=O)O)C[C@H]1c1ccc(C(F)(F)F)cc1 [Example 13, {(1R,3S,4R)-4-[(cyclohexylmethyl) (3-methylbutyl)amino]-3-[4-(trifluoromethyl)phenyl]cyclohexyl} acetic acid] | –
– | 618 | CC(C)CCN(CCC(F)(F)F)[C@@H]1CC[C@@H](CC(=O)O)C[C@H]1c1ccc(C(F)(F)F)cc1 (racemic) [Example 9, {(1R,3S,4R)/ (1S,3R,4S)-4-[(3-methylbutyl) (3,3,3-trifluoropropyl)amino]-3-[4-(trifluoromethyl)phenyl]cyclohexyl} acetic acid, hydrochloride salt] | –
411 | – | Cc1cc(CN(CC(C)C)[C@@H]2CC[C@@H](CC(=O)O)C[C@H]2c2ccc(C(F)(F)F)cc2)oc1C [Example 67, {(1R,3S,4R)-4-{[(4,5-dimethyl-2-furyl)methyl](isobutyl)amino}-3-[4-(trifluoromethyl)phenyl]cyclohexyl}acetic acid, trifluoroacetate salt] | –
– | – | O=C(O)C[C@@H]1CC[C@@H](N(CC2CCCC2)CC2CCCC2)[C@H](c2ccc(C(F)(F)F)cc2)C1 [Example 1, {(1R,3S,4R)-4-[bis(cyclopentylmethyl)amino]-3-[4-(trifluoromethyl)phenyl]cyclohexyl}acetic acid] | IC50 [3]: 229 nM
516 | – | CC(C)(C)CCN(CC1CCCC1)[C@@H]1CC[C@@H](CC(=O)O)C[C@H]1c1ccc(C(F)(F)F)cc1 [Example 35, {(1R,3S,4R)-4-[(cyclopentylmethyl)(3,3-dimethylbutyl)amino]-3-[4-(trifluoromethyl)phenyl]cyclohexyl}acetic acid, ammonium salt] | –
